The record followed here is patent publication US10618914B2 (UNIVERSITY OF PITTSBURGH—OF THE COMMONWEALTH SYSTEM OF …, priority 2015, dated 2020).

One experiment relates to Cal33 cells. Nature of the experiment: Cal33 growth inhibition. It is filed as cell-based.
The test system of another experiment is STAT3. Nature of the experiment: HCS STAT3 assay. Type of experiment: cell-based.
The mark [1] stands for this setting: Homo sapiens, CAL-33, Table 1, read-out: Growth Inhibition Cal33 (mean IC50).
The mark [2] stands for this setting: Table 1, read-out: STAT3 (mean IC50).
[3] abbreviates: Homo sapiens, CAL-33, Table 2, read-out: Cal33 (IC50).
Setting [4] is: Table 2, read-out: STAT3 (IC50).
Where [5] appears, read: FIG. 3, read-out: STAT3 potency (IC50).
Setting [6] is: Table 2, read-out: Cal33 (IC50).

The structures appear in SMILES notation. Where two headings read alike, the source gives them in different places. A value given as a limit tells only on which side of the number the result lay.

As for `c1ccc2c(C3=Nn4c(nnc4-c4[nH]nc5c4CCC5)SC3)c[nH]c2c1` [UPCDC10115], the values for the concentration for half-maximal inhibition (IC50) with Cal33 cells (setting [1]) and with STAT3 (setting [2]) were 0.21 µM and 38 µM, respectively.
For the compound `COc1ccc(C2=Nn3c(nnc3-c3[nH]nc4c3CCC4)SC2C)cc1` (centres unmarked) [UPCDC10262], the concentration for half-maximal inhibition (IC50) was found to be 0.18 µM with Cal33 cells (setting [1]), 0.18 µM in the experiment on Cal33 cells (setting [3]), 8.78 µM in the experiment on STAT3 (setting [2]) and 8.8 µM with STAT3 (setting [4]).
In the case of `CC1Sc2nnc(-c3[nH]nc4c3CCC4)n2N=C1c1ccc(Cl)cc1` (centres unmarked) [UPCDC10281], the 50% inhibitory concentration (IC50) worked out at 0.44 µM in the experiment with Cal33 cells (setting [1]), 0.44 µM with Cal33 cells (setting [3]), 7.21 µM in the experiment on STAT3 (setting [2]) and 7.21 µM in the experiment on STAT3 (setting [4]).
For the compound `COc1ccc(C2=Nn3c(nnc3-c3[nH]nc4c3CCC4)SC2CC(C)C)cc1` (centres unmarked) [UPCDC10305], the IC50 in the experiment on Cal33 cells (setting [1]) is 0.47 µM; in the experiment with Cal33 cells (setting [3]) it was 0.47 µM; in the experiment with STAT3 (setting [5]) it was below 10 µM; in the experiment with STAT3 (setting [2]), 5.14 µM; in the experiment on STAT3 (setting [4]), 5.1 µM.
For the compound `COc1ccc(C2=Nn3c(nnc3C(C)C)SC2C)cc1` (centres unmarked) [UPCDC10332], the 50% inhibitory concentration (IC50) in the experiment on Cal33 cells (setting [1]) came to 0.16 µM; with STAT3 (setting [2]) it was 14.3 µM.
For `COc1ccc(C2=Nn3c(nnc3-c3ccccc3)SC2C)cc1` (centres unmarked) [UPCDC10352], the IC50 in the experiment with Cal33 cells (setting [1]) was determined as 0.21 µM; with Cal33 cells (setting [3]), 0.21 µM; with STAT3 (setting [2]), 27.6 µM; in the experiment with STAT3 (setting [4]), 27.6 µM.
Turning to `CC1Sc2nnc(-c3cc(-c4ccccc4)n[nH]3)n2N=C1c1ccccc1` (centres unmarked) [compound 10131], the figures for the IC50 in the experiment with Cal33 cells (setting [6]) and in the experiment on STAT3 (setting [4]) were 26.3 µM and 3 µM, respectively.
In the case of `CC1Sc2nnc(-c3cc(-c4ccccc4)n[nH]3)n2N=C1c1ccccc1` (centres unmarked) [compound 10260], the results for the IC50 in the experiment on Cal33 cells (setting [6]) and in the experiment on STAT3 (setting [4]) were 42.7 µM and 4.8 µM, respectively.
The like results for `CC1Sc2nnc(-c3cc(-c4ccccc4)n[nH]3)n2N=C1c1ccccc1` (centres unmarked) [compound 10261] were, in that order, 40 µM and 12.3 µM.
For `CC1(C)Sc2nnc(-c3cc(-c4ccccc4)n[nH]3)n2N=C1c1ccccc1` [compound 10264] the same measures were 50 µM and 45.6 µM.
`CC1(C)Sc2nnc(-c3cc(-c4ccc(Cl)cc4)n[nH]3)n2N=C1c1ccccc1` [compound 10268]: the half-inhibitory concentration (IC50) in the experiment on Cal33 cells (setting [6]) came out at 50 µM; in the experiment on STAT3 (setting [4]) it was 38.2 µM.
For `CC1(C)Sc2nnc(-c3[nH]nc4c3CCC4)n2N=C1c1ccc(Cl)c(Cl)c1` [compound 10283] the same measures were 50 µM and 18.6 µM.
In the case of `Clc1ccc(C2=Nn3c(nnc3-c3[nH]nc4c3CCC4)SC2Cc2ccccc2)cc1Cl` (centres unmarked) [compound 10308], the 50% inhibitory concentration (IC50) with Cal33 cells (setting [6]) is 3.3 µM; in the experiment with STAT3 (setting [5]), below 10 µM; with STAT3 (setting [4]), 7.5 µM.
Take `COc1ccc(C2=Nn3c(nnc3-c3cc(-c4ccccc4)n[nH]3)SC2C(C)C)cc1` (centres unmarked) [compound 10319]: the 50% inhibitory concentration (IC50) came out at 20 µM in the experiment with Cal33 cells (setting [6]) and 21.6 µM with STAT3 (setting [4]).
Take `COc1ccc(C2=Nn3c(nnc3-c3[nH]nc4c3CCC4)SC2Cc2ccccc2)cc1` (centres unmarked) [compound 10320]: the results for the 50% inhibitory concentration (IC50) with Cal33 cells (setting [6]) and with STAT3 (setting [4]) were 0.83 µM and 19.5 µM, respectively.
Regarding `COCCC1Sc2nnc(-c3cc(-c4ccc(Cl)cc4)n[nH]3)n2N=C1c1ccc(OC)cc1` (centres unmarked) [compound 10373], the results for the IC50 with Cal33 cells (setting [6]) and in the experiment on STAT3 (setting [4]) were 4.8 µM and 33.2 µM, respectively.
The like results for `COCCC1Sc2nnc(-c3cc(-c4ccc(F)cc4)n[nH]3)n2N=C1c1ccc(OC)cc1` (centres unmarked) [compound 10374] were, in that order, 14.4 µM and 8.5 µM.
Turning to `CCN(CC)CCC1Sc2nnc(-c3cc(-c4ccccc4)n[nH]3)n2N=C1c1ccc(OC)cc1` (centres unmarked) [compound 10380], the IC50 is 3.7 µM in the experiment with Cal33 cells (setting [6]), below 10 µM in the experiment on STAT3 (setting [5]) and 8.8 µM in the experiment with STAT3 (setting [4]).
On to `COc1ccc(C2=Nn3c(nnc3-c3[nH]nc4c3CCC4)SC2CCN)cc1` (centres unmarked) [compound 10383], for which the half-maximal inhibitory concentration (IC50) in the experiment with Cal33 cells (setting [6]) was determined as 2.5 µM; with STAT3 (setting [4]), 31.2 µM.
For `COc1ccc(C2=Nn3c(nnc3-c3[nH]nc4c3CCC4)SC2CCO)cc1` (centres unmarked) [compound 10403] the same measures were 0.93 µM and 49.2 µM.
The like results for `O=C(CC1Sc2nnc(-c3cc(-c4ccccc4)n[nH]3)n2N=C1c1ccccc1)N1CCCC1` (centres unmarked) [compound 10410] were, in that order, 43.5 µM and 37.3 µM.
For `O=C(CC1Sc2nnc(-c3cc(-c4ccc(Cl)cc4)n[nH]3)n2N=C1c1ccccc1)N1CCCC1` (centres unmarked) [compound 10411] the same measures were 21.6 µM and 11.1 µM.
For the compound `COc1ccc(C2=Nn3c(nnc3-c3nn(C)c4c3CCC4)SC2C)cc1` (centres unmarked) [compound 10420], the IC50 was determined as 0.38 µM with Cal33 cells (setting [6]) and 46.1 µM in the experiment on STAT3 (setting [4]).
In the case of `COc1ccc(C2=Nn3c(nnc3-c3nn(C(C)=O)c4c3CCC4)SC2C)cc1` (centres unmarked) [compound 10421], the results for the 50% inhibitory concentration (IC50) in the experiment with Cal33 cells (setting [6]) and in the experiment with STAT3 (setting [4]) were 0.26 µM and 37.1 µM, respectively.
For the compound `COc1ccc(C2=Nn3c(nnc3-c3nn(C(=O)OC(C)(C)C)c4c3CCC4)SC2C)cc1` (centres unmarked) [compound 10422], the values for the half-inhibitory concentration (IC50) in the experiment on Cal33 cells (setting [6]) and in the experiment with STAT3 (setting [4]) were 0.38 µM and 34.7 µM, respectively.
For `COC(=O)CC1Sc2nnc(-c3cc(-c4ccccc4)n[nH]3)n2N=C1c1ccccc1` (centres unmarked) [compound 10423], the half-maximal inhibitory concentration (IC50) in the experiment with Cal33 cells (setting [6]) turned out to be 37.9 µM; with STAT3 (setting [4]) it was 17.9 µM.
Regarding `COc1ccc(C2=Nn3c(nnc3-c3cc(-c4ccccc4)n[nH]3)SC2CC(=O)N(C)C)cc1` (centres unmarked) [compound 10425], the values for the concentration for half-maximal inhibition (IC50) in the experiment on Cal33 cells (setting [6]), in the experiment on STAT3 (setting [5]) and in the experiment with STAT3 (setting [4]) were 29.3 µM, below 10 µM and 9.9 µM, respectively.
The like results for `COc1ccc(C2=Nn3c(nnc3-c3cc(-c4ccccc4)n[nH]3)SC2CC(=O)N2CCCC2)cc1` (centres unmarked) [compound 10426] were, in that order, 20.5 µM, below 10 µM and 9.1 µM.
`COC(=O)CC1Sc2nnc(-c3cc(-c4ccccc4)n[nH]3)n2N=C1c1ccc(OC)cc1` (centres unmarked) [compound 10427]: the IC50 came to 34.5 µM in the experiment on Cal33 cells (setting [6]) and 11.6 µM in the experiment with STAT3 (setting [4]).
Turning to `COc1ccc(C2=Nn3c(nnc3-c3[nH]nc4c3CSC4)SC2C)cc1` (centres unmarked) [compound 10435], the IC50 in the experiment with Cal33 cells (setting [6]) stood at 0.63 µM; in the experiment with STAT3 (setting [4]), 33.9 µM.
For `COC(=O)Cn1nc(-c2nnc3n2N=C(c2ccc(OC)cc2)C(C)S3)c2c1CCC2` (centres unmarked) [compound 10437] the same measures were 2.8 µM and 25.3 µM.
The like results for `COc1ccc(C2=Nn3c(nnc3-c3nn(CC(=O)OC(C)(C)C)c4c3CCC4)SC2C)cc1` (centres unmarked) [compound 10438] were, in that order, 49.6 µM and 34.1 µM.
The like results for `COc1ccc(C2=Nn3c(nnc3-c3nn(Cc4ccccc4)c4c3CCC4)SC2C)cc1` (centres unmarked) [compound 10439] were, in that order, 1.7 µM and 7.6 µM.
For the compound `CCOC(=O)CC1Sc2nnc(-c3cc(-c4ccccc4)n[nH]3)n2N=C1c1ccc(OC)cc1` (centres unmarked) [compound 10448], the IC50 in the experiment with Cal33 cells (setting [6]) was found to be 13.6 µM; in the experiment with STAT3 (setting [4]), 15.5 µM.
For `CC(=O)n1nc(-c2nnc3n2N=C(c2ccc(Cl)c(Cl)c2)C(C)S3)c2c1CCC2` (centres unmarked) [compound 10458] the same measures were 4.5 µM and 22.7 µM.
For `CC1Sc2nnc(-c3nn(C)c4c3CCC4)n2N=C1c1ccc(Cl)c(Cl)c1` (centres unmarked) [compound 10469] the same measures were 3.1 µM and 7.8 µM.
As for `CC1Sc2nnc(-c3[nH]nc4c3CCC4)n2N=C1c1ccc(C(F)(F)F)cc1` (centres unmarked) [compound 10470], the IC50 with Cal33 cells (setting [6]) was determined as 1.4 µM; with STAT3 (setting [4]) it was 24.4 µM.
For `COc1cccc(C2=Nn3c(nnc3-c3[nH]nc4c3CCC4)SC2C)c1` (centres unmarked) [compound 10471] the same measures were 3.9 µM and 40.1 µM.
